25 compounds from ChEMBL document CHEMBL1201862, “PubChem BioAssay data set” (2004) can be followed below.

One assay concerns the target Cytochrome P450 2C9 (Homo sapiens, UniProt P11712).
The nature of assay [1]: Luminescence Cell-Based Dose Confirmation HTS to Identify Activators of 5'UTR Stem-Loop Driven Alpha-Synuclein mRNA Translation in H4 Neuroglioblastoma Cells. [Related pubchem assays: 1829 (Project Summary), 1814 (Primary HTS)]. In kind it is functional.
The test system of a further assay is H4. Nature of the assay: Luminescence Cell-Based Dose Response HTS to Identify Activators of 5'UTR Stem-Loop Driven Prion Protein mRNA Translation in H4 Neuroglioblastoma Cells. [Related pubchem assays: 1829 (Project Summary), 1814 (Primary HTS)]. The format is functional. As to conditions: Homo sapiens.
Assay [2] is described as follows: Luminescence Cell-Based Dose Response HTS to Identify Activators of Luciferase Translation or Activity in H4 […] Cells. [Related pubchem assays: 1829 (Project Summary), 1814 (Primary HTS)]. The format is functional.
The target in the next assay is Cytochrome P450 2C19 (Homo sapiens, UniProt P33261). Nature of the assay: Cytochrome panel assay with activity outcomes. Panel member name: p450-cyp2c19 Compounds with AC50 equal or less than 10 uM are considered active. As to conditions: read-out: AC50. In kind it is functional.
Cytochrome P450 2C19, sequence (P33261 whole entry): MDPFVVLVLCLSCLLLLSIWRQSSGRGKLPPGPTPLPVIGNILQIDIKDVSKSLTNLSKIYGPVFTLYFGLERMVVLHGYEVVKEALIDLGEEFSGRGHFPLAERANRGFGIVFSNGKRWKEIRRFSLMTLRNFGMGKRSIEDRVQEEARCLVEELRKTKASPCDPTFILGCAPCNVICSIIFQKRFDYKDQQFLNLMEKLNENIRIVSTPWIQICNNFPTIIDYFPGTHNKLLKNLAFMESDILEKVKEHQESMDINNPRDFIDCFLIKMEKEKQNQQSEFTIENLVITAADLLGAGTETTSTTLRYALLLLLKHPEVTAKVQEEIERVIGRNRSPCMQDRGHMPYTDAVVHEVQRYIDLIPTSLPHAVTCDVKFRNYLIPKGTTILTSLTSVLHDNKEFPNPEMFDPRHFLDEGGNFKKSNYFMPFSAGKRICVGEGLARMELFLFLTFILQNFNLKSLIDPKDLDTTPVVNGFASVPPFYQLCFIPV
The nature of assay [3]: Luminescence Cell-Based Dose Response HTS to Identify Inhibitors of 5'UTR Stem-Loop Driven Prion Protein mRNA Translation in H4 Neuroglioblastoma Cells. [Related pubchem assays: 1827 (Project Summary), 1813 (Primary HTS)]. The format is functional.
A short description of assay [4]: alpha-synuclein stem-loop luciferase translation blockers – H4 neuroglioma cells, luminescence, confirmation (AID 1988). The format is functional, cell-based.
Assay [5] in a line: luciferase reporter signal suppression in cells – H4 neuroglioma cells, luminescence, dose response (AID 1990). In kind it is functional, cell-based.
The target of another assay is Cytochrome P450 3A4 (Homo sapiens, UniProt P08684).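 Also: CYP3A4 tested as one member of a cytochrome P450 panel screen.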
Cytochrome P450 3A4, sequence (P08684 whole entry): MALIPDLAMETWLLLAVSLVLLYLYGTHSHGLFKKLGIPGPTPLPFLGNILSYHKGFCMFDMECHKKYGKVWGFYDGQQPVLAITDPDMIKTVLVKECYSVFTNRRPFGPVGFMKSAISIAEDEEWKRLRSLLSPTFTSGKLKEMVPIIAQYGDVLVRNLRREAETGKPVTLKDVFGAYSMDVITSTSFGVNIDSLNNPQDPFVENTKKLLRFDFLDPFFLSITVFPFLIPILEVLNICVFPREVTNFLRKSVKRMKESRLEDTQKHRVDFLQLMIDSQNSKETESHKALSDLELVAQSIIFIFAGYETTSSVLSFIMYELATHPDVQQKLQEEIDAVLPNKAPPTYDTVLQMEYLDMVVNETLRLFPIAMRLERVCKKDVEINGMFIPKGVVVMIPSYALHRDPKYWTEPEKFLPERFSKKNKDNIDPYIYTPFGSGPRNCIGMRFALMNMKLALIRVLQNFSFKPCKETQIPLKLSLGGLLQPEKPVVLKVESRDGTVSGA
Assay [6] deals with T1, Replicative DNA helicase DnaB (Mycobacterium tuberculosis, UniProt P9WMR3).
T1 sequence (P9WMR3 whole entry): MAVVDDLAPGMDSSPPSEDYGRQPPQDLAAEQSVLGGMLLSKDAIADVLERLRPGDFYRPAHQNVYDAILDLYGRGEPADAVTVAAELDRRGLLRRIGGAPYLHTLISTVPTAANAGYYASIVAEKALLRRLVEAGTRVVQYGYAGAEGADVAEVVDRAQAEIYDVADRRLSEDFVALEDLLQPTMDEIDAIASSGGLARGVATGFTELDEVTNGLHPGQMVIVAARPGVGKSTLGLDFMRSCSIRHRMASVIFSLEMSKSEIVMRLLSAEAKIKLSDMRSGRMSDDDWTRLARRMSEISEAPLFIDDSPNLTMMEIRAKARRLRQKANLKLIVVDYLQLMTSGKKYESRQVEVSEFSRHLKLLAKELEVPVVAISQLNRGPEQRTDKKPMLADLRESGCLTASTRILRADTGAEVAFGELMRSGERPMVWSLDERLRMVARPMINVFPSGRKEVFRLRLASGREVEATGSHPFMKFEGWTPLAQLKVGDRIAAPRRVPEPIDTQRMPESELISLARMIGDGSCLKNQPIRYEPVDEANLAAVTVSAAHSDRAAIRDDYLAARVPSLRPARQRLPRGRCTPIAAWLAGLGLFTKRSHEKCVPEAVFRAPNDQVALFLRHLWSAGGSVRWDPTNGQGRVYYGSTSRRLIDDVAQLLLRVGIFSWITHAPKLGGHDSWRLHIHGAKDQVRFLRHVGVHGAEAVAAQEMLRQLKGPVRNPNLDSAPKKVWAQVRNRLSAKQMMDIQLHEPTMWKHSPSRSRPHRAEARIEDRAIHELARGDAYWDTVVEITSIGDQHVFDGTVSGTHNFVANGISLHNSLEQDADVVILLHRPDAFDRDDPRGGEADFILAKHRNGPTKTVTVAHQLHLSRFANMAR
Nature of the assay: DnaB intein splicing inhibitors, dose response, biochemical, cell-free fluorescence (AID 449749). The format is functional.

Another assay deals with T2, Protein RecA (Mycobacterium tuberculosis, UniProt P9WHJ3).
T2 sequence (P9WHJ3 whole entry): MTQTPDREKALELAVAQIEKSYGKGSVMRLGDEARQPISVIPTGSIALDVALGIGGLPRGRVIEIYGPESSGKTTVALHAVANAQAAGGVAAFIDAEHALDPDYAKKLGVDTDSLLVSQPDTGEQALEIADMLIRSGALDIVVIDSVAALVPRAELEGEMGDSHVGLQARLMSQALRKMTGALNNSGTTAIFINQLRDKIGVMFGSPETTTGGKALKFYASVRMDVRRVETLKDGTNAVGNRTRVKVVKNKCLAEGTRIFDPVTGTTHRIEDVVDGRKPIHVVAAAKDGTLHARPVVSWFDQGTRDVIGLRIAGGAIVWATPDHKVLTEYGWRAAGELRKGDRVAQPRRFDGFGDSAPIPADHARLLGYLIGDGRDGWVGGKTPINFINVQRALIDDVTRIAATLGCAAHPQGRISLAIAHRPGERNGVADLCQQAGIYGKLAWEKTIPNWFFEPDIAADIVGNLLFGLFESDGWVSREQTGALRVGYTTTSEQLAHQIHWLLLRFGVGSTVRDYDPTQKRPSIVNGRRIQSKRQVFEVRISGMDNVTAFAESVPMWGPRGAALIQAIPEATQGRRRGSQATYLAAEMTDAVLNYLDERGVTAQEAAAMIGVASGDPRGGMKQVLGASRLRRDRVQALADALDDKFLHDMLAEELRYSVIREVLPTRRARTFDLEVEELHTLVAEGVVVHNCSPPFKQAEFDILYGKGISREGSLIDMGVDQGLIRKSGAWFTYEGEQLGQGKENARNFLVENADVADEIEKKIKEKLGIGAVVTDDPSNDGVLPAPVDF
The assay is described as follows: Fluorescence Cell-Free Homogeneous Dose Retest to Identify Inhibitors of RecA-Intein Splicing Activity. [Related pubchem assays (depositor defined):AID2097, AID2223, AID489010, AID492950]. The format is functional.

Activity calls are given as the source filed them.

Cytochrome P450 2C9, sequence (P11712 whole entry): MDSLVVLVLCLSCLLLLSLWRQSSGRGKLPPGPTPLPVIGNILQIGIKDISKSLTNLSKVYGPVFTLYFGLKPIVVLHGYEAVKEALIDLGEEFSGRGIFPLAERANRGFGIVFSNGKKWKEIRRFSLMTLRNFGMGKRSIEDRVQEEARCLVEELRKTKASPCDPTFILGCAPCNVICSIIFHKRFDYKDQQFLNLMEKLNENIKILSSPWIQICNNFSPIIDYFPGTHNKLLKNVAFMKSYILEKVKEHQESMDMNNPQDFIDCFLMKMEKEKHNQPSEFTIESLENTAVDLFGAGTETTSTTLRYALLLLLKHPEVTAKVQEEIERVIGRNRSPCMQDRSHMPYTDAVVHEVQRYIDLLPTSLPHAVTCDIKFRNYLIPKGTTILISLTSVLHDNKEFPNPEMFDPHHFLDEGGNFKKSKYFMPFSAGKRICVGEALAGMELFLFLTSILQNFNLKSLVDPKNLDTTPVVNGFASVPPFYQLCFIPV

Usually AC50 stands for the midpoint of the concentration-response curve, whichever way the signal moves. As for `CC(C)[C@@H]1NC(=O)[C@H](CCCCN)NC(=O)[C@H](Cc2c[nH]c3ccccc23)NC(=O)[C@H](Cc2ccc(O)cc2)NC(=O)[C@H](C)N(C)C(=O)[C@H](Cc2ccccc2)NC1=O`, the AC50 at Cytochrome P450 2C9 is 25.1 µM (inconclusive).
For orientation: EC50 means the concentration at which the effect is half-maximal. Take `CC1CCCC(/C=N/c2ccc3c(c2)OCO3)=C1O` (centres undefined): the EC50 in [1] is 13.7 µM (active); in the assay with H4 it was 39.1 µM (active); in assay [2] it was 16.1 µM (active).
For `COC(=O)c1cnn(-c2nc(-c3ccccc3)cs2)c1N` the same measures were 0.585 µM (active), > 120 µM (not active) and 72.2 µM (active).
Regarding `COC(=O)C1=C(NC(=O)c2cccs2)CCS1`, the results for the AC50 at Cytochrome P450 2C19 and on Cytochrome P450 2C9 were 17.8 µM (inconclusive) and 39.8 µM (inconclusive), respectively.
Take `COC(=O)c1ccc(COC(=O)c2nn(C)c(=O)c3ccccc23)cc1`: the EC50 in assay [1] is 15.6 µM (active); in the assay with H4 it was > 120 µM (not active); in assay [2], 14.1 µM (active).
For `COc1cc(-c2onc3ccc(Br)cc23)cc(OC)c1OC`, the EC50 in assay [3] is 10.8 µM (active); in assay [4] it was 4.29 µM (active); in assay [5], > 120 µM (not active).
For `Cc1cc(Oc2ccc3ccccc3c2)nc(SCC(=O)c2ccccc2)n1` the same measures were 15 µM (active), 26.9 µM (active) and > 120 µM (not active).
In the case of `N#Cc1cccc(-c2nc(NCc3cccnc3)c3ccccc3n2)c1`, at Cytochrome P450 2C9, the AC50 is 1.58 µM (inconclusive).
Regarding `CC1CCc2nc(NC(=O)C3COc4ccccc4O3)sc2C1` (centres undefined), the EC50 in assay [3] was 10 µM (active); in assay [4], 5.45 µM (active); in assay [5], 5.93 µM (inconclusive).
For the compound `COc1ccc(CCN2C(=O)CS/C2=N\NC(=O)c2ccc(C(C)(C)C)cc2)cc1OC`, the results for the EC50 in assay [3], in assay [4] and in assay [5] were 21.1 µM (active), > 120 µM (not active) and 22.4 µM (active), respectively.
Regarding `C=CCOc1ccc(C(=O)C2=C(O)C(=O)N(CCCn3ccnc3)C2c2cccs2)cc1` (centres undefined), the EC50 in assay [1] was > 120 µM (not active); in the assay on H4, > 120 µM (not active); in [2], 12 µM (active).
For `Cc1ccc2nc(-c3ccc(S(=O)(=O)N4CCCCC4)cc3)cn2c1`, the EC50 in [1] was > 120 µM (not active); in the assay on H4, 14.9 µM (active); in assay [2], 24.4 µM (active).
In the case of `O=C(c1cc(C(F)(F)F)cc(C(F)(F)F)c1)N1CCC2(CCCN(Cc3ccncc3)C2)CC1`, the AC50 on Cytochrome P450 3A4 was 10 µM (inconclusive); at Cytochrome P450 2C19, 25.1 µM (inconclusive); at Cytochrome P450 2C9, 7.94 µM (inconclusive).
Turning to `O=c1c([N+](=O)[O-])c(N2CCOCC2)c2ccccc2n1Cc1ccccc1`, the EC50 was > 120 µM (not active) in assay [3], > 120 µM (not active) in [4] and 19 µM (active) in assay [5].
Consider `O=C(CCN1CCN(CC(=O)Nc2ccccc2Cl)CC1)Nc1ccccc1F`, for which the AC50 on Cytochrome P450 3A4 was 20 µM (inconclusive); at Cytochrome P450 2C9, 10 µM (inconclusive).
In the case of `Cc1nn(C)c(C)c1CNC(=O)c1cnn2c1NC(c1ccccc1)CC2C(F)(F)F` (centres undefined), on Cytochrome P450 2C9, the AC50 is 15.8 µM (inconclusive).
Turning to `C/C(=N\NC(N)=O)c1ccc(Cl)cc1`, the AC50 on Cytochrome P450 2C19 is 31.6 µM (inconclusive); on Cytochrome P450 2C9, 2 µM (inconclusive).
In the case of `COC(=O)c1cc(CSc2nc3ccccc3[nH]2)oc1C`, the values for the EC50 in assay [1] and in [2] were 12.8 µM (active) and 31.9 µM (active), respectively.
Turning to `CS(=O)(=O)NNC(=O)CN1C(=O)C2C3C=CC(C3)C2C1=O` (centres undefined), the EC50 in assay [3] was 22.1 µM (active); in assay [4] it was > 120 µM (not active); in [5], > 120 µM (not active).
Turning to `O=C(Nc1cccc(OC(=O)c2ccco2)c1)c1ccco1`, the results for the AC50 (in assay [6]; at Cytochrome P450 2C9) were 21.4 µM (active) and 25.1 µM (inconclusive), respectively. Besides, the EC50 at Protein RecA was 10.1 µM (active).
`O=C(OCc1nc2ccccc2[nH]1)C12CC3CC(CC(C3)C1)C2`: the values for the AC50 on Cytochrome P450 3A4 and on Cytochrome P450 2C9 were 1.12 µM (inconclusive) and 14.1 µM (inconclusive), respectively.
With `CC1CC1C(=O)OCC(=O)NC(=O)NC12CC3CC(CC(C3)C1)C2` (centres undefined), the EC50 is 13.1 µM (active) in assay [1], 15.4 µM (active) in the assay on H4 and 21.1 µM (active) in assay [2].
Regarding `CCOC(=O)N1CCC(NC(=O)c2ccc3c(c2)sc2nc(-c4cccc(OC)c4)cn23)CC1`, the EC50 in assay [1] was 28.6 µM (active); in the assay on H4, 7.29 µM (active); in [2] it was 12.6 µM (active).
Regarding `CCOc1ccccc1-n1c(CN2CCN(C(=O)c3ccco3)CC2)nc2ccccc2c1=O`, the values for the EC50 in assay [3], in assay [4] and in assay [5] were 8.43 µM (active), 7.97 µM (active) and 8.25 µM (active), respectively.
For the compound `COc1cc(N=C(S)N2CCOCC2)c(OC)cc1Cl`, the EC50 (in assay [1]; in the assay on H4; in assay [2]) was > 120 µM (not active) throughout.
